pIC50: −log10 of the molar value. In brackets after ≈: the same amount, converted by molar mass.
What was measured:
Capra hircus = species: Capra hircus; assay: Inhibition of goat lens AR at 100 uM incubated for 10 mins in presence of NADPH by spectroscopic analysis
[1] = Antioxidant activity assessed as DPPH radical scavenging activity incubated for 20 mins by spectrophotometric analysis; type: functional; set-up: concentration or dose not given beside the values
[2] = Antioxidant activity assessed as hydroxyl radical scavenging activity incubated for 5 mins by spectrophotometric analysis; type: functional; set-up: concentration or dose not given beside the values
Urease = Urease (Canavalia ensiformis, UniProt P07374); assay: Inhibition of jack bean urease by phenol red method
Urease, sequence (P07374 whole entry): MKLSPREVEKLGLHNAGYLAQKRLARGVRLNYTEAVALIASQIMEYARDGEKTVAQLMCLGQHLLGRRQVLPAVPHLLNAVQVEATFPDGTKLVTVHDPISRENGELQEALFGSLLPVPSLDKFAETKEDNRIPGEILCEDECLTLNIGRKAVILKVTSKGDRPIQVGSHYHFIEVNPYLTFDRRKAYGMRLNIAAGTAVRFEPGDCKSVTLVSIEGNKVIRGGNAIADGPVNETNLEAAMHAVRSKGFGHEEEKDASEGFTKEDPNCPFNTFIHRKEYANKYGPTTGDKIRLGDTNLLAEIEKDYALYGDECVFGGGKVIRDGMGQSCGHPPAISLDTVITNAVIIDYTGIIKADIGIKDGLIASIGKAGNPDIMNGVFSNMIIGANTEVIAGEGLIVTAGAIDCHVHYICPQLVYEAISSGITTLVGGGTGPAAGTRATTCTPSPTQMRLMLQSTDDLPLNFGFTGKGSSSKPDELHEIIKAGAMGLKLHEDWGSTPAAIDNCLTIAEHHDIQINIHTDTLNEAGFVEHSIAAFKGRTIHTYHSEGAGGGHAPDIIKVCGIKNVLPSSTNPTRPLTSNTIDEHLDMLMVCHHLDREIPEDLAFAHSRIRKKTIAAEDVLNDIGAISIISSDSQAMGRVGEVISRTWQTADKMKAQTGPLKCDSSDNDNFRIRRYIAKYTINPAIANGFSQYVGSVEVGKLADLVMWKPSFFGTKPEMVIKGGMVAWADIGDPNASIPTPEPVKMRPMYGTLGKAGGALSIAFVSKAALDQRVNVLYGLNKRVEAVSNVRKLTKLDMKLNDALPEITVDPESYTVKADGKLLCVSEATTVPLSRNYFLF

[3] = Antioxidant activity assessed as NO radical scavenging activity; type: functional
Aspergillus ochraceus = assay: Antifungal activity against Aspergillus ochraceus assessed as diameter of inhibition zone by disc diffusion method; type: functional
Penicillium chrysogenum = assay: Antifungal activity against Penicillium chrysogenum assessed as diameter of inhibition zone by disc diffusion method; type: functional
HeLa = assay: Anticancer activity against human HeLa cells assessed as reduction in cell viability incubated for 48 hrs by MTT assay; type: functional, cell-based
MCF7 [4] = assay: cells; conditions: Homo sapiens, MCF7, 48 h
Homo sapiens = species: Homo sapiens; assay: Anticoagulant activity in human plasma assessed as activated partial thromboplastin time at 1000 ug/ml incubated for 4 mins; type: functional; conditions: dose 1000 µg/ml
MCF7 [5] = assay: cells; type: functional, cell-based; conditions: Homo sapiens, MCF7, 96 h
HCT-116 = assay: Anticancer activity against human HCT-116 cells assessed as reduction in cell viability incubated for 96 hrs by MTT assay; type: functional, cell-based; conditions: HCT-116, 96 h
Staphylococcus aureus [6] = assay: Antibacterial activity against Staphylococcus aureus assessed as bacterial growth inhibition by broth microdilution method; type: functional
Escherichia coli [7] = assay: Antibacterial activity against Escherichia coli assessed as bacterial growth inhibition by broth microdilution method; type: functional
Klebsiella pneumoniae [8] = assay: Antibacterial activity against Klebsiella pneumoniae assessed as bacterial growth inhibition by broth microdilution method; type: functional
Pseudomonas aeruginosa [9] = assay: Antibacterial activity against Pseudomonas aeruginosa assessed as bacterial growth inhibition by broth microdilution method; type: functional
Bacillus cereus = assay: Antimicrobial activity against Bacillus cereus ATCC14579 assessed as diameter of inhibition zone at 20 mg/ml incubated for 24 hrs by disk diffusion method; type: functional; conditions: read-out: DIZ
Staphylococcus aureus [10] = assay: Antimicrobial activity against Staphylococcus aureus NCTC7447 assessed as diameter of inhibition zone at 20 mg/ml incubated for 24 hrs by disk diffusion method; type: functional; conditions: read-out: DIZ
Klebsiella pneumoniae [11] = assay: Antimicrobial activity against Klebsiella pneumoniae UC57 assessed as diameter of inhibition zone at 20 mg/ml incubated for 24 hrs by disk diffusion method; type: functional; conditions: read-out: DIZ
Pseudomonas aeruginosa [12] = assay: Antimicrobial activity against Pseudomonas aeruginosa ATCC 27853 assessed as diameter of inhibition zone at 20 mg/ml incubated for 24 hrs by disk diffusion method; type: functional; conditions: read-out: DIZ
Escherichia coli [13] = assay: Antimicrobial activity against Escherichia coli ATCC 14169 assessed as diameter of inhibition zone at 20 mg/ml incubated for 24 hrs by disk diffusion method; type: functional; conditions: read-out: DIZ
Staphylococcus aureus [14] = assay: Antibacterial activity against Staphylococcus aureus assessed as diameter of inhibition zone; type: functional
Bacillus subtilis = assay: Antibacterial activity against Bacillus subtilis assessed as diameter of inhibition zone; type: functional
Escherichia coli [15] = assay: Antibacterial activity against Escherichia coli assessed as diameter of inhibition zone; type: functional
Salmonella typhimurium = assay: Antibacterial activity against Salmonella typhimurium assessed as diameter of inhibition zone; type: functional, Salmonella enterica subsp. enterica serovar Typhimurium
[16] = Antioxidant activity assessed as H2O2 radical scavenging activity; type: functional

**Q.** Which inhibition (Capra hircus) does the source give for `O=c1[nH]c2c(c(=O)[nH]1)Oc1c(c(=O)oc3ccccc13)C2c1ccc([N+](=O)[O-])cc1` (stereo not drawn) here?
**A.** 39%

**Q.** And the Activity [1]?
**A.** 59.1%

**Q.** And the Activity [2]?
**A.** 54.3%

**Q.** With `Cn1c2c(c(=O)n(C)c1=O)C(c1ccc(O)cc1)C(C#N)=C(N)O2` (stereo not drawn) as the compound, how does the pIC50 (Urease) read?
**A.** 3.97

**Q.** With `Nc1ncnc2c1C(c1cc(Cl)ccc1O)c1ccc(O)cc1O2` (stereo not drawn) as the compound, how does the IC50 [3] read?
**A.** 50.32 µg/mL (≈ 147 µM)

**Q.** For `Brc1ccc2c3c(ccc2c1)Oc1ncn2nc(-c4ccccc4)nc2c1C3`, which “diameter of the inhibition zone (DIZ)” value (Aspergillus ochraceus) is on record?
**A.** 17 mm

**Q.** What about the “diameter of the inhibition zone (DIZ)” value (Penicillium chrysogenum) of the same compound?
**A.** 13 mm

**Q.** Which inhibition (Capra hircus) does the source give for `O=c1c(O)c(-c2ccc(O)c(O)c2)oc2cc(O)cc(O)c12` here?
**A.** 92%

**Q.** What does the source list for `O=C1Nc2c(c(=O)oc3ccccc23)C(c2ccc(O)cc2)N1` (stereo not drawn)?
**A.** pIC50 (HeLa): 4.42; pIC50 (MCF7 [4]): 4.42

**Q.** For `COc1ccc(-n2cnc3c(c2=N)C(c2ccccc2)C2=C(CC(C)(C)CC2=O)O3)cc1` (stereo not drawn), which Time (Homo sapiens) is on record?
**A.** 57 s

**Q.** For `O=c1[nH]c2c(c(=O)[nH]1)Oc1c(c(=O)oc3ccccc13)C2c1cccc([N+](=O)[O-])c1` (stereo not drawn), which inhibition (Capra hircus) is on record?
**A.** 59%

**Q.** And the Activity [1]?
**A.** 59.1%

**Q.** And the Activity [2]?
**A.** 54.3%

**Q.** What does the source list for `O=c1[nH]c2c(c(=O)[nH]1)C(c1cccs1)c1[nH]c(=S)n(-c3ccccc3)c(=O)c1O2` (stereo not drawn)?
**A.** pIC50 (MCF7 [5]): 5.89; pIC50 (HCT-116): 5.56

**Q.** With `O=C1Nc2c(c(=O)oc3ccccc23)C(c2ccccc2)N1` (stereo not drawn) as the compound, how does the pIC50 (HeLa) read?
**A.** 4.34

**Q.** And the pIC50 (MCF7 [4])?
**A.** 4.48

**Q.** With `COc1ccc(C2c3c(N)ncnc3Oc3ccc4cc(Br)ccc4c32)cc1` (stereo not drawn) as the compound, how does the “diameter of the inhibition zone (DIZ)” value (Aspergillus ochraceus) read?
**A.** 17 mm

**Q.** What about the “diameter of the inhibition zone (DIZ)” value (Penicillium chrysogenum) of the same compound?
**A.** 13 mm

**Q.** What does the source list for `CCO/C=N/C1=C(C#N)C(c2ccccc2OC)c2c(n(C)c(=O)n(C)c2=O)O1` (stereo not drawn)?
**A.** MIC (Staphylococcus aureus [6]): 6.25 µg/mL (≈ 15.8 µM); MIC (Escherichia coli [7]): 6.25 µg/mL (≈ 15.8 µM); MIC (Klebsiella pneumoniae [8]): 6.25 µg/mL (≈ 15.8 µM); MIC (Pseudomonas aeruginosa [9]): 6.25 µg/mL (≈ 15.8 µM)

**Q.** For `CCO/C=N/C1=C(C#N)C(c2ccccc2Cl)c2c(n(C)c(=O)n(C)c2=O)O1` (stereo not drawn), which MIC (Staphylococcus aureus [6]) is on record?
**A.** 6.25 µg/mL (≈ 15.6 µM)

**Q.** What about the MIC (Escherichia coli [7]) of the same compound?
**A.** 6.25 µg/mL (≈ 15.6 µM)

**Q.** And the MIC (Klebsiella pneumoniae [8])?
**A.** 6.25 µg/mL (≈ 15.6 µM)

**Q.** What about the MIC (Pseudomonas aeruginosa [9]) of the same compound?
**A.** 6.25 µg/mL (≈ 15.6 µM)

**Q.** For `N#CC1=C(N)Oc2cc(O)ccc2C1c1ccco1` (stereo not drawn), which IC50 [3] is on record?
**A.** 50.32 µg/mL (≈ 198 µM)

**Q.** With `O=C1Nc2c(c(=O)oc3ccccc23)C(c2ccc(Cl)cc2)N1` (stereo not drawn) as the compound, how does the pIC50 (HeLa) read?
**A.** 4.34

**Q.** What about the pIC50 (MCF7 [4]) of the same compound?
**A.** 4.48

**Q.** Which “diameter of the inhibition zone (DIZ)” value (Aspergillus ochraceus) does the source give for `Brc1ccc2c3c(ccc2c1)Oc1ncn2ncnc2c1C3` here?
**A.** 17 mm

**Q.** And the “diameter of the inhibition zone (DIZ)” value (Penicillium chrysogenum)?
**A.** 13 mm

**Q.** Which results are given for `N#CC1=C(N)Oc2[nH]c(=O)[nH]c(=O)c2C1c1cccc([N+](=O)[O-])c1` (stereo not drawn)?
**A.** zone of inhibition at 20000 µg/mL (Bacillus cereus): 14 mm; zone of inhibition at 20000 µg/mL (Staphylococcus aureus [10]): 7 mm; zone of inhibition at 20000 µg/mL (Klebsiella pneumoniae [11]): 6 mm; zone of inhibition at 20000 µg/mL (Pseudomonas aeruginosa [12]): 11 mm; zone of inhibition at 20000 µg/mL (Escherichia coli [13]): 11 mm; diameter of the inhibition zone (DIZ) (Staphylococcus aureus [14]): 14 mm; diameter of the inhibition zone (DIZ) (Bacillus subtilis): 12 mm; diameter of the inhibition zone (DIZ) (Escherichia coli [15]): 10 mm; diameter of the inhibition zone (DIZ) (Salmonella typhimurium): 14 mm; pIC50 (Urease): 4.00

**Q.** With `CN1C(=O)C2C(c3ccccc3)C(C#N)=C(N)OC2N(C)C1=O` (stereo not drawn) as the compound, how does the pIC50 (Urease) read?
**A.** 4.01

**Q.** With `O=C1Nc2c(c(=O)oc3ccccc23)C(c2ccccc2O)N1` (stereo not drawn) as the compound, how does the pIC50 (HeLa) read?
**A.** 4.42

**Q.** What about the pIC50 (MCF7 [4]) of the same compound?
**A.** 4.42

**Q.** With `Cc1cccc(-n2cnc3c(c2=N)C(c2ccccc2)C2=C(CC(C)(C)CC2=O)O3)c1` (stereo not drawn) as the compound, how does the Time (Homo sapiens) read?
**A.** 53.7 s

**Q.** What does the source list for `Nc1ncnc2c1Oc1[nH]c(=O)[nH]c(=O)c1C2c1cccs1` (stereo not drawn)?
**A.** pIC50 (MCF7 [5]): 6.06; pIC50 (HCT-116): 5.14

**Q.** For `COc1ccc(C2c3c(ncn(C)c3=N)Oc3ccc4cc(Br)ccc4c32)cc1` (stereo not drawn), which “diameter of the inhibition zone (DIZ)” value (Aspergillus ochraceus) is on record?
**A.** 17 mm

**Q.** And the “diameter of the inhibition zone (DIZ)” value (Penicillium chrysogenum)?
**A.** 13 mm

**Q.** With `CONC1=C(C#N)Oc2[nH]c(=O)[nH]c(=O)c2C1c1cccs1` (stereo not drawn) as the compound, how does the pIC50 (MCF7 [5]) read?
**A.** 5.51

**Q.** And the pIC50 (HCT-116)?
**A.** 5.20

**Q.** With `O=c1[nH]c2c(c(=O)[nH]1)Oc1c(c(=O)oc3ccccc13)C2c1ccc(Cl)cc1` (stereo not drawn) as the compound, how does the inhibition (Capra hircus) read?
**A.** 47%

**Q.** What about the Activity [1] of the same compound?
**A.** 71.5%

**Q.** And the Activity [2]?
**A.** 68.3%

**Q.** With `Cc1ccc(C2C(C#N)=C(N)Oc3[nH]c(=O)[nH]c(=O)c32)cc1` (stereo not drawn) as the compound, how does the “diameter of the inhibition zone (DIZ)” value (Bacillus subtilis) read?
**A.** 10 mm

**Q.** What about the “diameter of the inhibition zone (DIZ)” value (Salmonella typhimurium) of the same compound?
**A.** 8 mm

**Q.** What about the pIC50 (Urease) of the same compound?
**A.** 4.14

**Q.** Which Time (Homo sapiens) does the source give for `CCc1ccc(-n2cnc3c(c2=N)C(c2ccccc2)C2=C(CC(C)(C)CC2=O)O3)cc1` (stereo not drawn) here?
**A.** 61.8 s

**Q.** Which IC50 [16] does the source give for `CCOc1ccc(C2C(C#N)=C(N)Oc3cc(O)ccc32)cc1` (stereo not drawn) here?
**A.** 53.54 µg/mL (≈ 174 µM)

**Q.** With `COc1ccc(C2c3c(nc[nH]c3=O)Oc3ccc4cc(Br)ccc4c32)cc1` (stereo not drawn) as the compound, how does the “diameter of the inhibition zone (DIZ)” value (Aspergillus ochraceus) read?
**A.** 17 mm

**Q.** And the “diameter of the inhibition zone (DIZ)” value (Penicillium chrysogenum)?
**A.** 13 mm

— ChEMBL document CHEMBL5241112, “Insights into the recent progress in the medicinal chemistry of pyranopyrimidine analogs” (RSC Med Chem, 2022)
